Each structure is given as a SMILES string. A value given as a limit tells only on which side of the number the result lay.

This note sets out measurements from patent US11242344B2, “(4-hydroxypyrrolidin-2-yl)-heterocyclic compounds and methods of use thereof” (Genentech, Inc., priority 2017, dated 2022).

The target of assay [1] is T1, BRD4 (Homo sapiens (Human), UniProt O60885). In words: BRD4 degradation assay in EOL-1 cells, high content fluorescence imaging. Conditions: 4 hours; for DC50: BRD4 immunofluorescence, read-out: EOL-1 EC50. Type of assay: cell-based. On the procedure: (§1) PC3 (Steap-1) prostate cancer cells: PC3 (Steap-1) prostate cancer cells (PC3 cells overexpressing the surface protein Steap-1) were seeded on day 1 at a density of 200,000 cells/mL in 45 μl/well in cell plates in a 384 well Greiner/Perkin Elmer Cell Carrier TC Treated plate (part #6007430) in Assay Medium (RPMI, 10% FBS, 2 mM Glutamax). Cells were incubated overnight at 37° C. degrees. On day 2, compounds were serially diluted 3-fold in DMSO spanning the concentrations 10 mM to 8.6 nM, in 384 well clear polypropylene plates (Greiner Cat #781201). DMSO and 10 mM of a control PROTAC (dBET1, as described in WO 2017/024317, p. 235, structure below) (control compound) were added to designated wells. Compounds and controls were diluted 50-fold (2 μl of DMSO stock into 98 μl) into Assay Medium. 5 μl of the diluted compounds was transferred to the cell plates. The final top concentration of the test compounds in the cell plates was 20 μM. Cell plates were incubated at 37° C., for 4 hours. Fixation and permeabilization were carried out using a Biotek EL406 plate washer and dispenser as follows. Cells were fixed by addition of 15 μL of 16% paraformaldehyde (Electron Microscopy Sciences #15710-S) directly to the 50 μL cell culture medium in each well using the peristaltic pump 5 μL cassette on a Biotek EL406 (final concentration of formaldehyde was 3.7% w/v). Samples were incubated 30 minutes. Well contents were aspirated and 50 μL/well of Phosphate Buffered Saline (PBS) containing 0.5% w/v bovine serum albumen, 0.5% v/v Triton X-100 (Antibody Dilution Buffer) was added to each well. Samples were incubated for 30 minutes. Well contents were aspirated and washed 3 times with 100 μL/well of PBS.
EOL-1 cells: The BRD4 degradation assay was performed on EOL-1 cells using the same procedure as described above for PC3 (Steap-1) prostate cancer cells, except EOL-1 cells were seeded at 1,000,000 cells/mL. Following aspiration and washing of the well contents with 100 μL/well of PBS, 40 μL PBS plus 10% normal goat serum was added per well for 20 minutes at room temperature.
(§2) For both the PC3 and EOL-1 cell assays, immunofluorescence staining of BRD4 was carried out using a Biotek EL406 plate washer and dispenser as follows. The well supernatant was aspirated from the wells and 25 μL/well of rabbit mAb Anti-BRD4 [EPR5150(2)] abeam 128874 diluted 1:500 in Antibody Dilution Buffer is dispensed. Samples were incubated for 2 hours at room temperature. Samples were washed 4 times with 100 μL/well of PBS. 25 μL/well of secondary antibody solution (Goat Anti-Rabbit IgG, DyLight 488 Conjugated Highly Cross-adsorbed #35553 1:1000) diluted 1:1000 and Hoechst 33342 1 μg/ml diluted in Antibody Dilution Buffer) were dispensed into each well. 16 wells of the plate, which were designated as ‘no primary antibody” wells, received only Antibody Dilution Buffer (without anti-BRD4 antibody). Samples were incubated for 2 hours at room temperature. Samples were washed 3 times with 100 μL/well of PBS using a Biotek EL406. Quantitative fluorescence imaging of BRD4 was carried out using a Phenix (Perkin Elmer). Fluorescence images of the samples (Channel 1: Hoechst33342 (DNA stain); Channel 2: 488 nm (BRD4 stain)) were acquired. Channel 1 (DNA stain) was used to define the “Region of Interest” (ROI) nuclear region. Measurements of BRD4 average immunofluorescence intensity within the ROI (nuclear region), were made on a per cell basis and averaged over all the measured cells. Data analysis was carried out using Genedata Screener Software, with DMSO and “no primary antibody” samples being used to define the 0% and 100% changes in BRD4. The “Robust Fit” method was used to define the inflexion point of curve (EC50) and the plateau of the maximal effect (Sinf). The Sinf value reports degradation as percent change in protein level, so complete loss of the protein target is −100%. […]

The target of assay [2] is T1, BRD4. The assay can be described thus: BRD4 degradation assay in PC3 (Steap-1) prostate cancer cells, high content fluorescence imaging. In kind it is cell-based. The conditions noted are these: PC3 (Steap-1) cells, 4 hours; for DC50: BRD4 immunofluorescence, read-out: PC3 (Steap-1) EC50; for PC3 (Steap-1) Sinf (%): maximum degradation, percent change in protein level (-100% = complete loss). On the procedure:
as §1, §2

On to `Cc1ncsc1-c1ccc([C@]2(C)NC(C3C[C@@H](O)CN3C(=O)C(c3cc(OCCCCCNC(=O)c4cc5c(cc4CS(C)(=O)=O)-c4cn(C)c(=O)c6[nH]cc(c46)CN5c4ncc(F)cc4F)no3)C(C)C)=NC2=O)cc1` (single isomer, unassigned) [Example 1001.1], for which the DC50 in assay [1] and in assay [2] was greater than 20 µM in each case.
On to `Cc1ncsc1-c1ccc([C@]2(C)NC(C3C[C@@H](O)CN3C(=O)C(c3cc(OCCCCCNC(=O)c4cc5c(cc4CS(C)(=O)=O)-c4cn(C)c(=O)c6[nH]cc(c46)CN5c4ncc(F)cc4F)no3)C(C)C)=NC2=O)cc1` (single isomer, unassigned) [Example 1001.2], for which the DC50 in assay [1] came to 0.000865 µM. Also, in assay [1] (maximum degradation, percent change in protein level (-100% = complete loss)), the “EOL-1 Sinf (%)” value was −96.4%. Moreover, in assay [2], the DC50 worked out at 0.0033 µM and the “PC3 (Steap-1) Sinf (%)” value is on record as −97.2%.
For the compound `Cc1ncsc1-c1ccc([C@]2(C)NC(C3C[C@@H](O)CN3C(=O)C(c3cc(OCCCCCNC(=O)c4cc5c(cc4CS(C)(=O)=O)-c4cn(C)c(=O)c6[nH]cc(c46)CN5c4ncc(F)cc4F)no3)C(C)C)=NC2=O)cc1` (single isomer, unassigned) [Example 1001.3], in assay [1], the DC50 is greater than 20 µM. Moreover, in assay [2], the DC50 was determined as 0.14 µM and the “PC3 (Steap-1) Sinf (%)” value is listed as −29.0%.
Turning to `Cc1ncsc1-c1ccc([C@]2(C)NC(C3C[C@@H](O)CN3C(=O)[C@@H](NC(=O)CCCCCCCCCCNC(=O)c3cc4c(cc3CS(C)(=O)=O)-c3cn(C)c(=O)c5[nH]cc(c35)CN4c3ncc(F)cc3F)C(C)(C)C)=NC2=O)cc1` (single isomer, unassigned) [Example 1005.1], in assay [1], the DC50 is greater than 20 µM.
